In patent US6797861B2, “Seed shattering” (Bayer BioScience NV, priority 1995, dated 2004):

Tests used:
Type in all cases: in vivo, Brassica napus
[1] = test system: pods of oilseed rape cv Fido; assay: Pod wall senescence and pod shatter tendency of treated plants; conditions: spray at 150 mg/l, 35 days after anthesis
Protocol: (§1) Brassica napus cv Fido plants were grown in an unheated greenhouse. At 12 days after germination plants were transferred to, and further grown in, 1000 cm^3 compost. Pods were collected at one week intervals from two to eight weeks after anthesis. The pods were taken from the base of the terminal one of the first three axillary racemes. The pods were separated into dehiscence zone, pod wall and seeds.
(§2) In a further experiment ethylene production was inhibited by treating the pods with aminoethoxyvinylglycine (AVG), a competitive inhibitor of the enzyme ACC-synthase. AVG was applied 28 days after anthesis at 500 mg/l. […] Decreased endogenous ACC concentrations in both dehiscence zone and seeds of the treated pods correlated with the reduced ethylene production. […] A decrease in endogenous IAA content in the dehiscence zone preceding pod opening was also observed in these experiments both in control and in AVG-treated plants.
(§3) To examine the auxin involvement in pod shattering, the synthetic auxin 4-chlorophenoxyacetic acid (4CPA) was used to manipulate auxin levels. 4CPA was applied 35 days after anthesis as a spray at 150 mg/l in order to artificially keep auxin concentration at a high level during the entire period. […] No effect was observed on the endogenous phytohormone concentrations.

Beta-Glucanase = assay: Beta-glucanase activity in the dehiscence zone; conditions: spray at 150 mg/l, 35 days after anthesis
Protocol: as §3

[2] = test system: pods (8% moisture) of oilseed rape cv Fido; assay: Cantilever bending test of pod opening force; conditions: plants sprayed
Protocol: as §1
as §2, with “plants. […]” for “plants.”
3) changes in the mechanical properties of the DZ and their seed shatter resistance by analysing the shatter resistance of individual pods. […] In yet another procedure, susceptibility to crack propagation is determined by friction measurement. In this case, the force generated due to friction between a wedge forced along the DZ is recorded and enables comparison of DZ tissues in selected, extreme examples of resistance.

[3] = test system: endogenous ACC and IAA in pod tissues; assay: Endogenous phytohormone (ACC, IAA) concentrations in pod tissues; conditions: spray at 150 mg/l, 35 days after anthesis
Protocol: as §1
The samples were grinded with a mortar and pestle and then extracted for 16 hours at −20 C. in a total volume of 80% methanol. Purification and analysis of phytohormones was carried out essentially as described [Bialek and Cohen (1989), Plant Physiol. 90: 398; Prinsen et al. (1991), in: A Laboratory Guide for Cellular and Molecular Plant Biology. Ed. Negrutiu and Gharti-Chhetri. Birkhäuser Verlag, Basel/Boston/Berlin pp.175-185, pp.323-324; Chauvaux et al. (1993), J. Chromatogr. A 657: 337].
Different parts of the pods (pod wall, dehiscence zone and seeds) were screened for endogenous concentrations of the ethylene precursor 1-aminocyclopropane-1-carboxylic acid (ACC) and conjugates thereof as well as for indole-3-acetic acid (IAA) and conjugates thereof.
In a further experiment ethylene production was inhibited by treating the pods with aminoethoxyvinylglycine (AVG), a competitive inhibitor of the enzyme ACC-synthase. AVG was applied 28 days after anthesis at 500 mg/l. […]

Structure (SMILES): O=C(O)COc1ccc(Cl)cc1 [4CPA, 4-chlorophenoxyacetic acid]
- delay of pod wall senescence [1]: about two
- pod shatter tendency [1]: distinct retardation
- Beta-Glucanase activity in the dehiscence zone (Beta-Glucanase): markedly decreased
- Force needed to initiate crack (pod opening) [2]: 194.9 10^−3N
- Force needed to propagate crack (pod opening) [2]: 222.6 10^−3N
- effect on endogenous phytohormone concentrations [3]: No effect
